Measurements published in patent US20130324522A1, “INSECT ODORANT RECEPTOR ANTAGONISTS” (THE ROCKEFELLER UNIVERSITY, priority 2010, published 2013).
Like-named read-outs stand apart in the source and are kept apart here.

What was measured:
Type in all cases: cell-based
TRP channel (TRPM8) = target: T1, TRP channel (TRPM8) (Mus musculus, UniProt Q8R4D5); test: Ca2+-imaging of stable HEK293T cell line TRPM8; details: for inhibition at 4 µM: HEK-293T, compound applied at 4 μM, read-out: Percent Inhibition TRPM8
T1 construct: Full-length cDNAs for mosquito (Anopheles gambiae) odorant receptor (OR1, OR2, OR7, OR8, OR28), and fly (Drosophila melanogaster) odorant receptor (Or47a, Or83b), mouse TRP channel (TRPM8); expressed in transfected cells
Procedure: (§1) Full-length cDNAs for mosquito (Anopheles gambiae) odorant receptor (OR1, OR2, OR7, OR8, OR28), and fly (Drosophila melanogaster) odorant receptor (Or47a, Or83b), mouse TRP channel (TRPM8), and mouse serotonin receptor (5HT3) were obtained and subcloned into mammalian expression vectors. The following mammalian expression vectors were used:
(§2) Stable cell lines OR1/OR7, OR2/OR7, OR8/OR7, OR10/OR7, OR28/OR7 and TRPM8 were generated from HEK293T cells. HEK293T-based cell lines were cultured in DMEM supplemented with these additional antibiotics: 6 μg/mL blasticidin and 1 μg/mL puromycin, with the exception of the TRPM8 cell lines, which was cultured in DMEM supplemented with 1 μg/mL puromycin.
(§3) Cells were trypsinized and split into 35 mm dishes one day before transfection. Confluent cells (60-70%) in 35 mm dishes were transfected with 1 μg of insect OR(X) plasmids in pME18s-bla and 1 μg of OR7-pME18s-puro using lipofectamine 2000. For Anopheles odorant receptors, two plasmids were co-transfected into HEK cells: the ligand-specific receptor (OR1, OR2, OR8, OR28) and the corresponding olfactory co-receptor: OR7. Cell lines containing TRPM8 were transfected with single plasmid.
(§4) Stable cell lines were cultured in 10 cm dishes, and confluent cells (70-80%) were trypsinized. 10,000 cells/20 μL were transferred into each well of 384-well plates coated with poly-D-lysine, and cultured for 2 days. For Flip-In T-Rex cells (cell lines expressing Or47a/Or83b and 5HT3), 5 μL of tetracycline (5 μg/mL) were added 1 day before the assay. 20 μL of Ca-4 dye was loaded into each well for 1.5 hr at room temperature in the dark, and the dye-loaded plates were subjected to Ca^2+-imaging using a Hamamatsu FDSS6000 real time fluorescence plate reader. Odorant solutions (9× final concentration) were prepared by dissolving 1M stock solutions into Hank's Buffered Salt Solution (HBSS), and 30 μL of odor solution was transferred to each well in 384-well plates.
(§5) Compounds ([…] in DMSO) were stored in 384-well plates, and last two columns (32 wells total) contained only DMSO. 200 nL of small compounds were transferred into the odorant plates before the assay using the Perkin-Elmer Janus workstation. The odorant plates were spun down to remove air bubbles, and placed on the FDSS6000 plate loader, and 5 μL of odorant solution was applied to the cell plate on the FDSS6000. Ca^2+ increase was monitored with fluorescence at 525 nm by excitation at 485 nm.

OR28/OR7 = OR28/OR7 (Anopheles gambiae, UniProt A0A1S4GFY3+Q7QCC7); test: Ca2+-imaging of stable HEK293T cell line OR28/OR7; details: for inhibition at 4 µM: HEK-293T, compound applied at 4 μM, read-out: Percent Inhibition OR28 OR7
Procedure: as §1, §2, §3, §4, §5

Or47a/Or83b = target: T2, Or47a/Or83b (Drosophila melanogaster, UniProt P81921+Q9VNB5); test: Ca2+-imaging of stable Flip-In T-Rex cell line Or47a/Or83b; details: for inhibition at 4 µM: compound applied at 4 μM, read-out: Percent Inhibition OR47a OR83b
T2 construct: Full-length cDNAs for mosquito (Anopheles gambiae) odorant receptor (OR1, OR2, OR7, OR8, OR28), and fly (Drosophila melanogaster) odorant receptor (Or47a, Or83b); expressed in transfected cells
T2 sequence (P81921 1-385): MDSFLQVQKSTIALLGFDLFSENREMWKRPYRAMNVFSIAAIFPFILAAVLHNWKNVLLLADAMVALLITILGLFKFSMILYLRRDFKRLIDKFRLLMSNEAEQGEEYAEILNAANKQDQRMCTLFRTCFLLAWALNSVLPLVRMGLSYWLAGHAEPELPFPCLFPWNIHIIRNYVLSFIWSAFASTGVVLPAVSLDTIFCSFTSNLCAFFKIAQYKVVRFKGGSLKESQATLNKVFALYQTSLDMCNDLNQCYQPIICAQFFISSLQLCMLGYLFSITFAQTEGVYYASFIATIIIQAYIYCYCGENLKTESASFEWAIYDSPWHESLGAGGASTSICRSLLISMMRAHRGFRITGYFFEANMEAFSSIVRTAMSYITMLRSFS
T2 sequence (Q9VNB5 1-486): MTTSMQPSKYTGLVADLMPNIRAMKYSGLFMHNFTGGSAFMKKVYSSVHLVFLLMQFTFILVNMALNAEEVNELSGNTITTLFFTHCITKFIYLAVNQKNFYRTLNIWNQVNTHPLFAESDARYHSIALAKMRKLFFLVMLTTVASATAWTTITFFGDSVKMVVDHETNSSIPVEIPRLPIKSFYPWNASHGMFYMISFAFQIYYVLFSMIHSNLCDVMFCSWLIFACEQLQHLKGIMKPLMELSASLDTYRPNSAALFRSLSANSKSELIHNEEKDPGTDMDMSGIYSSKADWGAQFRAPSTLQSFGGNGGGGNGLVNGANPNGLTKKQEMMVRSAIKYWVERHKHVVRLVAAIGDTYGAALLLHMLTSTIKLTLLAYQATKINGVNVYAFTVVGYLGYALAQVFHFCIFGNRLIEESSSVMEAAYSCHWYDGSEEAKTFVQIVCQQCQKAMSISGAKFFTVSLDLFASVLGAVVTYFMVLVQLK
Procedure: as §1
Stable cell lines Or47a/Or83b and 5HT3 were generated from Flip-In T-Rex cells. Flip-In T-Rex-based cell lines were cultured in DMEM supplemented with these additional antibiotics: 6 μg/mL blasticidin and 100 μg/mL hygromycin.
Cells were trypsinized and split into 35 mm dishes 1 day before transfection. Confluent cells (60-70%) in 35 mm dishes were co-transfected with 1 μg of Or47a/Or83b plasmid in pcDNA5/FRT/TO/IRES plus the pOG44 plasmid or 1 μg of 5HT3 plasmid in pcDNA5/FRT/TO plus the pOG44 plasmid using lipofectamine 2000. Co-transfection of pOG44 and pcDNA5/FRT/TO/IRES or pcDNA5/FRT/TO allows expression of Flp recombinase and integration of the pcDNA5 plasmid into the genome via the FRT site. After one day of incubation, the transfected cells were transferred into 10 cm dishes with DMEM containing antibiotics: 20 μg/mL of hygromycin and 6 μg/mL of blasticidin. The concentration of Hygromycin was increased to 100 μg/mL when the population of cells became 30-40% confluent. The cells were cultured by changing medium every two days until cell clumps appeared. The clumps were picked and transferred into 96 well plates with DMEM containing 100 μg/mL of Hygromycin and 6 μg/mL of blasticidin. The cells were grown and transferred to 24 well plates, and ligand-evoked calcium increases were tested using the Hamamatsu FDSS6000 real time fluorescence plate reader.
as §4, §5

OR28/OR7, sequence (A0A1S4GFY3 entry or part of it): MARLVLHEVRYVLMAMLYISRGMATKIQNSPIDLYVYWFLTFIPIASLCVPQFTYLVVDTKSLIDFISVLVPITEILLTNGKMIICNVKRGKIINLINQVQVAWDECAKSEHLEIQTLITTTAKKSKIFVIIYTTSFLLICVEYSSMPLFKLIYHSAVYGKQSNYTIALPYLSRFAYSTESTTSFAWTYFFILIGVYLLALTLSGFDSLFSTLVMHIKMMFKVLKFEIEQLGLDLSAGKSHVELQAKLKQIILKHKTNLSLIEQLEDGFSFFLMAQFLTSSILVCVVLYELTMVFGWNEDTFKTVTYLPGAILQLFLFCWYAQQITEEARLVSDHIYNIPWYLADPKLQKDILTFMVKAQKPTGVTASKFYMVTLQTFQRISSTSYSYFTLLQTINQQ
OR28/OR7, sequence (Q7QCC7 whole entry): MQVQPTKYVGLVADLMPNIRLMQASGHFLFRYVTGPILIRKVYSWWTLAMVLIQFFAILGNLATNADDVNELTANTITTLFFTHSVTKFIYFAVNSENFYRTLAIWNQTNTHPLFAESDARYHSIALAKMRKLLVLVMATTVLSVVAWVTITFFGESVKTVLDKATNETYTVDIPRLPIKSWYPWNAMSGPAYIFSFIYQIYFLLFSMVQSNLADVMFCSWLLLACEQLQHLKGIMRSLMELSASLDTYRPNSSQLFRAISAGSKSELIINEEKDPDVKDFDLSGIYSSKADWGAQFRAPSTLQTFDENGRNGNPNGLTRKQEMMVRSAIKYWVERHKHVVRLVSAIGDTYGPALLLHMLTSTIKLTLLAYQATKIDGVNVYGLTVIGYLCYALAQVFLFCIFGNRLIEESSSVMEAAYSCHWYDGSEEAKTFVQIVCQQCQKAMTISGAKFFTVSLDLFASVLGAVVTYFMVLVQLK
T1 sequence (Q8R4D5 whole entry): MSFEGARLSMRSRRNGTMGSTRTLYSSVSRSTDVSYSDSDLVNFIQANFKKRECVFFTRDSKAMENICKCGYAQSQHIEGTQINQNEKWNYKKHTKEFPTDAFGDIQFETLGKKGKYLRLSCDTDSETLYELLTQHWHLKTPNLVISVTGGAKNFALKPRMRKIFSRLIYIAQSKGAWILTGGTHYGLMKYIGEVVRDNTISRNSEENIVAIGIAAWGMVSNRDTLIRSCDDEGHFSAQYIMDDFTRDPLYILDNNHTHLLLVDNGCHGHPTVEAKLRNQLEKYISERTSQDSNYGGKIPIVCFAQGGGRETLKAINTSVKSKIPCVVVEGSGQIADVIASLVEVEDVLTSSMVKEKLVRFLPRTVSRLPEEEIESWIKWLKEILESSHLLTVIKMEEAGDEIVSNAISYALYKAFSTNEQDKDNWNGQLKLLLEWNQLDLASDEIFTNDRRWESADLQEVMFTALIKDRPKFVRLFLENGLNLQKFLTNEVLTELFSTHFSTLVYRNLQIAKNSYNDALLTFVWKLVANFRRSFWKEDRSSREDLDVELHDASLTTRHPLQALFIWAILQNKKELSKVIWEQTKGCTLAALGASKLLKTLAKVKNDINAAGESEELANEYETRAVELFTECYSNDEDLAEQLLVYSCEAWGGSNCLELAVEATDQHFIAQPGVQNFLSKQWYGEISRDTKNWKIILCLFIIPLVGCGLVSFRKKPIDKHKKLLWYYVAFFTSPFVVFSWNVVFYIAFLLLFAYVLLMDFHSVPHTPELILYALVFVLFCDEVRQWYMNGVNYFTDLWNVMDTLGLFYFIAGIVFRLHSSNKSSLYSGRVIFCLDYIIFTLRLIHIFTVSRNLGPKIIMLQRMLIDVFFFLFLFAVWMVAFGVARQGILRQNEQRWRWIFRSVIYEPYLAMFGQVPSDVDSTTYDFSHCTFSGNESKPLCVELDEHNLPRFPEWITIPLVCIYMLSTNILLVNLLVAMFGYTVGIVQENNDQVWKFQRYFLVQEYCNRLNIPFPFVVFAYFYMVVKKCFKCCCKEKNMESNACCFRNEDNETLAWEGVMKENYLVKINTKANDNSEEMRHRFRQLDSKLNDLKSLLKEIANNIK

SMILES | inhibition at 4 µM (TRP channel (TRPM8)) [%] | inhibition at 4 µM (OR28/OR7) [%] | IC50 (OR28/OR7; Table B, read-out: IC50 OR28) [nM] | inhibition at 4 µM (Or47a/Or83b) [%] | IC50 (Or47a/Or83b; Table B, read-out: IC50 OR47a) [nM] | IC50 (TRP channel (TRPM8)) [nM] | IC50 (OR28/OR7) [nM] | IC50 (Or47a/Or83b) [nM] | IC50 (TRP channel (TRPM8); ligand menthol 300 μM, read-out: IC50 TRPM8) [nM] | IC50 (OR28/OR7; ligand acetophenone 300 μM, read-out: IC50 OR28 OR7) [nM] | IC50 (Or47a/Or83b; ligand pentyl acetate 30 μM, read-out: IC50 OR47a OR83b) [nM]
O=C(c1c(F)c(F)cc(F)c1F)N1CCOC(Cc2ccccc2)C1 (centres unmarked) [RU-0050393] | < 25 | > 75 | < 100 | 26 to 50 | – | – | – | – | – | – | –
CCn1c(C)c(C(=O)CN(CC2CCCO2)C(=O)C2C[C@H]2c2ccccc2)c(C)c1C(=O)OC (some centres unmarked) [RU-0071273] | < 25 | > 75 | < 100 | 26 to 50 | > 1000 | – | – | – | – | – | –
O=C(NCCC(=O)N1CCOC(COCc2ccc(F)cc2Cl)C1)OCc1ccccc1 (centres unmarked) [RU-0050344] | < 25 | > 75 | < 100 | 26 to 50 | – | – | – | – | – | – | –
COCCCN(Cc1c(-c2ccccc2)noc1N1CCC(C)CC1)C(=O)c1ccccc1F [RU-0036876] | < 25 | > 75 | < 100 | 51 to 74 | > 1000 | – | – | – | – | – | –
Cc1cccc(NC(=O)CCC2CCN(C(=O)CCOc3ccccc3)CC2)c1 [RU-0030324] | 26 to 50 | > 75 | < 100 | 51 to 74 | < 100 | – | – | – | – | – | –
CCc1c(C(=O)NCc2cccnc2)cnn1-c1ccccc1 [RU-0048504] | < 25 | > 75 | < 100 | 26 to 50 | – | – | – | – | – | – | –
CCN(CC)c1onc(-c2ccccc2)c1CN(CC1CCCO1)C(=O)c1ccc2c(c1)OCO2 (centres unmarked) [RU-0036875] | < 25 | > 75 | < 100 | 51 to 74 | > 1000 | – | – | – | – | – | –
CC(=O)OCC(=O)NCC1Cc2cc(Oc3ccccc3)ccc2O1 (centres unmarked) [RU-0079120] | < 25 | > 75 | < 100 | 51 to 74 | < 100 | – | – | – | – | – | –
COc1ccc(-c2cc(-c3ccccc3)n(C(=O)CN3CCN(Cc4ccccc4)CC3)n2)cc1 [RU-0038795] | < 25 | > 75 | < 100 | 51 to 74 | > 1000 | – | – | – | – | – | –
Cc1ccccc1C(=O)N[C@@H]1CCCCC1NC(=O)C1CCN(C(=O)c2ccc(C(C)(C)C)cc2)CC1 (some centres unmarked) [RU-0045678] | < 25 | > 75 | < 100 | 26 to 50 | – | – | – | – | – | – | –
CC(C)Nc1nc(NC(C)C)nc(C(F)(F)F)n1 [RU-T8] | – | – | – | – | – | > 20000 | > 20000 | > 20000 | – | – | –
COc1cccc(NC(=O)CCC2CCN(C(=O)CSc3ccccc3)CC2)c1 [RU-0032474] | < 25 | 51 to 74 | < 100 | 51 to 74 | > 1000 | – | – | – | – | – | –
C=CCN(Cc1nccn1Cc1ccccc1F)C(=O)C1CCCC1 [RU-0058964] | 26 to 50 | > 75 | < 100 | 51 to 74 | > 1000 | – | – | – | – | – | –
COc1ccc(-n2c(Cc3ccccc3)nnc2SCCCC(=O)N2CCN(C(=O)c3ccc(C(F)(F)F)cc3)C(C)C2)cc1 (centres unmarked) [RU-0071828] | < 25 | > 75 | < 100 | 26 to 50 | – | – | – | – | – | – | –
O=C(c1cccnc1Cl)N1CCOC(COCc2c(Cl)cccc2Cl)C1 (centres unmarked) [RU-0050372] | < 25 | > 75 | < 100 | 26 to 50 | – | – | – | – | – | – | –
COCCN(Cc1nccn1Cc1c(F)cccc1Cl)C(=O)CCc1ccccc1 [RU-0058550] | < 25 | > 75 | < 100 | 26 to 50 | – | – | – | – | – | – | –
O=C(c1nccn1Cc1c(F)cccc1Cl)N(CC1CCCC1)C1CC1 [RU-I3] | – | – | – | – | – | – | – | – | > 20000 | < 2000 | < 2000
CC(C)Nc1nc(Cl)nc(N(C)C(C)C)n1 [RU-T7] | – | – | – | – | – | > 20000 | > 20000 | > 20000 | – | – | –
Cc1ccc(-c2nnc(SCCCC(=O)N3CCN(C(=O)c4cccc(F)c4)C(C)C3)n2-c2ccc(C)cc2)cc1 (centres unmarked) [RU-0071789] | < 25 | > 75 | < 100 | 26 to 50 | – | – | – | – | – | – | –
Cc1cc(C)c(Cn2ccnc2CN(C(=O)c2ccccc2F)C(C)C)c(C)c1 [RU-0048001] | 26 to 50 | > 75 | < 100 | 51 to 74 | > 1000 | – | – | – | – | – | –
